Experiments:
[1] = system: 1A9PTX22 human ovarian cancer cells; experiment: Soft agar growth of 1A9PTX22 cells; assay type: cell-based
Protocol: Cell lines. The 1A9PTX22 cell line, a paclitaxel (PTX)-resistant clone of the human ovarian carcinoma cell line 1A9, was isolated by exposing 1A9 cells to 5 ng/ml PTX in the presence of 5 μg/ml verapamil, a P glicoprotein antagonist. 1A9PTX22 cells were kindly provided by Dr. Giannakakou, NCI Bethesda, Md., USA. Cells were maintained in RPMI medium supplemented with 10% heat-inactivated FBS, 20 mM HEPES, pH 7.4 penicillin (100 UI/ml), streptomycin (100 μg/ml) and 4 mM glutamine (ICN, Irvine, UK) 15 ng/ml PIX and 5 μg/ml verapamil in a humified atmosphere of 95% air and 5% CO2 at 37° C. 7 days before experiments were performed, PTX and verapamil were removed from culture medium.
(§1) Soft agar growth. Cells (10^4 cells/well) were seeded in 0.5 ml of 0.3% Difco Noble agar (Difco, Detroit, Mich.) supplemented with complete culture medium. This suspension was layered over 0.5 ml of 0.8% agar-medium base layer in 24 multiwell cluster dishes (Becton Dickinson) and treated with various concentrations of HYB 165 or HYB508 every 4g hours for three times. After 12 days the cells were stained with nitroblue tetrazolium (Sigma, St. Louis, Mo.) and colonies larger than 0.05 mm were counted.

[2] = system: GEO colon cancer xenografts; experiment: GEO colon cancer xenografts in nude mice (tumor growth, survival); assay type: in vivo; conditions: for inhibition of tumor growth: 10 mg/kg/dose
Protocol: We investigated the antitumor activity of HYB 165 (AS RIα) in nude mice bearing GEO colon cancer xenografts, using either the intraperitoneal (i.p.) or the oral route of administration. When established GEO tumors of approximately […] were detectable, groups of 10 mice were treated i.p. with either HYB 165 or a control modified backbone oligonucleotide with a scrambled sequence, at 5 or 10 mg/kg/dose, daily on days 7 to 11 and 14 to 18. […] The control oligonucleotide produced no inhibition at 10 mg/kg/dose.
Following oral administration, modified backbone oligonucleotides (MBOs) are absorbed in the upper and lower part of the GI tract and distributed to major organs (S. Agrawal and R. Zhang, In: Antisense Research and Application, S. T. Crooke, ed.), Handbook of Experimental Pharmacology, Springer, Berlin, p. 525–543 (1998). Therefore, HYB 165 and the control oligonucleotide were administered to GEO tumor-bearing mice as described above, except that HYB 165 and the control oligonucleotide were administered orally.
On day 7 after tumor cell injection, one group of 10 mice was treated with taxol (20 mg/kg/dose, i.p.), and the treatment was repeated every 2 weeks (on day 21 and day 35) for a total of three cycles. Two other groups of mice were treated with either HYB 165 (AS RIα) or a control MBO with a scrambled sequence (10 mg/kg/dose, p.o.), daily for five days (days 8–12). Treatment was repeated every 2 weeks (days 22–26 and days 36–40) for a total of three cycles. Two more groups of mice were treated with taxol and either HYB 165 or the control MBO, administering the taxol (20 mg/kg/dose, i.p.) on day 7, followed by oral administration of either HYB 165 or the control MBO daily for five days (days 8–12). The sequential treatment was repeated with the same schedule every 2 weeks for a total of three cycles.

[3] = system: OVCAR-3 ovarian cancer cells; experiment: Soft agar growth of OVCAR-3 cells; assay type: cell-based, human
Protocol: Cell lines. OVCAR human ovarian cancer cells were purchased from American Type Culture Collection (Rockville, Md., USA). Cells were maintained in DMEM and HAM'S F-12 (1:1) supplemented with 10% heat-inactivated FBS, 20 mM HEPES, pH 7.4, penicillin (100 UI/ml), streptomycin (100 μg/ml) and 4 mM glutamine (ICN, Irvine, UK) in a humified atmosphere of 95% air and 5% CO2 at 37° C.
as §1, with “HYB295” for “HYB508”, “48” for “4g”

[4] = system: RIα protein; experiment: Histochemical analysis of GEO tumors: RIα; assay type: in vivo, human
Excerpt: (§2) Tumor specimens from the different groups of mice were examined by histochemical analysis at different time points to evaluate the expression of a variety of biological parameters. […] No other treatment was able to affect RIα expression.

[5] = system: Ki67; experiment: Histochemical analysis of GEO tumors: Ki67 staining; assay type: in vivo; conditions: combination of taxol and HYB 165
Excerpt: as §2
TGFα and AR are growth factors which bind to EGFR and control human colon cancer growth through autocrine and paracrine mechanisms (F. Ciardiello and G. Tortora, Clin. Cancer Res. 4:821–828 (1998); D. S. Salomon, Crit. Rev. Oncol. Hematol. 19:183–232 (1995)).

[6] = system: p27; experiment: Histochemical analysis of GEO tumors: p27; assay type: in vivo
Excerpt: as §2
Loda et al. (Nature Medicine 3:231–234 (1997)) discloses that the cyclin-dependent kinase (CDK) inhibitor p27 is […] related to cell entry into S phase and proliferation and that reduction of its expression correlates with poor prognosis in colon cancer patients.

[7] = system: Factor VIII related antigen; experiment: Tumor-induced neovascularization (anti-Factor VIII related antigen immunohistochemistry); assay type: in vivo
Excerpt: In recent years, the critical role of tumor-induced neovascularization in neoplastic development, progression and metastasis has been elucidated (J. I. Fokman, In: J. Mendelsohn et al., eds., The Molecular Basis of Cancer, pp 206–232, Philadelphia: W B Saunders (1995) . A reliable histologic estimate of novel blood vessels on tumor specimens is the microvessel count (MVC) in the most intense areas of neovascularization. In the present study, tumor-induced neovascularization was quantified by immunohistochemistry using an anti-Factor VIII related antigen monoclonal antibody (N. Weidner, Breast Cancer Res. Treat., 36:169–180 (1995)).

[8] = combined treatment with taxol and HYB 165

## HYB 165: Hybrid 18-mer mixed backbone antisense to PKA RIα, GCGUGCCTCCTCACUGGC (SEQ ID NO:4), 2-O-methyl ribonucleotides at 5′ and 3′ ends (sugars by position and backbone not given here; 2'-O-methyl ribonucleotides at both ends, mixed backbone)
[1]; 0.1 μM
  inhibition of cell growth: approximately 5%
[1]; 0.5 μM
  inhibition of cell growth: about 50%
[1]; 1 μM
  inhibition of cell growth: about 82%
[1]; 2.5 μM
  inhibition of cell growth: over 95%
[2]; 10 mg/kg/dose p.o., at the completion of the three cycles of treatment
  inhibition of tumor size: over 50%
[2]; MBO 10 mg/kg/dose p.o. in combination with taxol 20 mg/kg/dose i.p., three cycles
  tumor growth: marked and sustained inhibition of tumor growth
[2]; MBO p.o. in combination with taxol i.p., three cycles
  survival: prolonged mouse life span
[2]; [8]
  tolerability (weight loss, signs of acute or delayed toxicity): well tolerated
[2]; i.p., daily on days 7 to 11 and 14 to 18, FIG. 16A
  inhibition of tumor growth: up to 40%
[2]; oral, two cycles, vs untreated mice, FIG. 16B
  inhibition of tumor growth: about 60%
[2]; single agent, three cycles (taxol 20 mg/kg/dose i.p.; MBO 10 mg/kg/dose p.o.), FIG. 17A
  tumor growth: inhibited tumor growth
[2]; single agent, three cycles, FIG. 17B
  survival time: increased survival time as compared to the control group
[2]; taxol 20 mg/kg/dose i.p. and HYB 165 10 mg/kg/dose p.o., three cycles
  time of very slow tumor growth following the end of treatment: approximately 60 days
[2]; taxol and HYB 165 in combination
  mice still alive after 15 weeks: about 50%
[3]; 0.1 μM
  inhibition of cell growth: approximately 25%
[3]; 0.5 μM
  inhibition of cell growth: about 58%
[3]; 1 μM
  inhibition of cell growth: about 75%
[3]; 2.5 μM
  inhibition of cell growth: about 95%
[4]; in combination with taxol, after two cycles
  expression of RIα protein in the tumor: further increased
[4]; single agent, after two cycles of treatment, FIG. 18
  expression of RIα protein in the tumor: inhited expression of the target RIα protein in the tumor
[5]
  cell proliferation by Ki67 staining: almost completely suppressed cell proliferation
[6]; single agent
  p27 expression: able to increase p27 expression
[6]; taxol and antisense RIα in combination
  increase in intensely positive cell staining for p27: 2.5 fold
[7]; [8]
  vessel formation: completely suppressed vessel formation in GEO tumors
[7]; single agent, vs untreated mice or scramble MBO
  inhibition of staining (microvessel count): about 80%

— patent publication US7074768B2, “Modified protein kinase A-specific oligonucleotides and methods of their use” (Idera Pharmaceuticals, Inc., priority 1995, dated 2006)
